In patent US9206156B2, “Substituted indole derivatives” (GRÜNENTHAL GMBH, priority 2008, dated 2015):

Experiments:
ORL1 receptor = target: T1, ORL1 receptor (Homo sapiens, UniProt P41146); experiment: ORL1 receptor binding assay with 3H-nociceptin/orphanin FQ (WGA-SPA beads); conditions: c=1 μM test substance; 0.5 nM 3H-nociceptin/orphanin FQ; membranes of recombinant CHO-ORL1 cells
T1 construct: expressed in transfected cells; host or cells: CHO (recombinant CHO-ORL1 cells), membranes
How it was run: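 Radioligand displacement on membranes from recombinant CHO-ORL1 cells, 0.5 nM 3H-nociceptin/orphanin FQ, 20 μg membrane protein per batch in 50 mM Hepes pH 7.4, 10 mM MgCl2, 1 mM EDTA. Incubated 1 h at room temperature with WGA-SPA beads, scintillation read. Reported as Ki (nM) or % inhibition at 1 μM.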

human μ-opiate receptor = target: T2, human μ-opiate receptor (Homo sapiens, UniProt P35372); experiment: μ-opiate receptor binding assay with [3H] naloxone (WGA-SPA beads); conditions: 1 μmol/l test substance; 1 nmol/l [3H] naloxone; CHO-K1 cell membranes expressing human μ-opiate receptor
T2 construct: purchased NEN, Zaventem, Belgium RB-HOM; host or cells: CHO-K1 cells (membrane preparation)
T2 sequence (P35372 whole entry): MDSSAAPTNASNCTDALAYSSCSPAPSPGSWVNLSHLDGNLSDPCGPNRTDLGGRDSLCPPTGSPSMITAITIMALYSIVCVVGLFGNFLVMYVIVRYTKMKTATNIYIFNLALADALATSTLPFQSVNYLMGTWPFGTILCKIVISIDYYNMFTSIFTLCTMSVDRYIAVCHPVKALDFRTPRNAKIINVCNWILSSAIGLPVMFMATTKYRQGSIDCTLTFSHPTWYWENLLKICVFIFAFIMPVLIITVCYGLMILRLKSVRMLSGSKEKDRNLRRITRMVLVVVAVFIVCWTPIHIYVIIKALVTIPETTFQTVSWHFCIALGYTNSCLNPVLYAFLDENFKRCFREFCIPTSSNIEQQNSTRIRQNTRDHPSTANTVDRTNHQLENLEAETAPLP
How it was run: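 CHO-K1 membranes expressing human μ-opiate receptor incubated 90 min at room temperature with 1 nmol/l [3H]naloxone and WGA-SPA beads in 50 mmol/l Tris-HCl with 0.05% azide, 0.06% BSA. Non-specific binding with 25 μmol/l naloxone; % inhibition at 1 μmol/l, or IC50 converted to Ki via Cheng-Prusoff.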

T1 sequence (P41146 whole entry): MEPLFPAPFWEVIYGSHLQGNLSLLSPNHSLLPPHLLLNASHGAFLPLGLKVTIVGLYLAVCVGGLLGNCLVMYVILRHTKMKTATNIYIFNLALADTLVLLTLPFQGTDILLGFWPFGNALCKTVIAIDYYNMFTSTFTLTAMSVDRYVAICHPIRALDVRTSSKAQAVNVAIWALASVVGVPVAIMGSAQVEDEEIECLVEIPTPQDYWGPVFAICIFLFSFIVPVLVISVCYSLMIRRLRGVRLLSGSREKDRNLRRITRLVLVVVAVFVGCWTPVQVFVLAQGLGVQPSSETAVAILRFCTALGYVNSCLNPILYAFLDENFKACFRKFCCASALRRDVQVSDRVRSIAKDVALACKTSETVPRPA

CN(C)C1(c2ccccc2)CCN(C(=O)C2CCCN(C(=O)Cc3c[nH]c4cc(F)ccc34)C2)CC1 (stereo not shown) [Example 124, 1-(3-(4-(dimethylamino)-4-phenylpiperidine-1-carbonyl)piperidin-1-yl)-2-(6-fluoro-1H-indol-3-yl)ethanone]
inhibition at 1 µM (ORL1 receptor): 43%
inhibition at 1 µM (human μ-opiate receptor): 64%

CN(C)C1(c2ccccc2)CCN(C(=O)C2CCCN(C(=O)c3ccc4cc[nH]c4c3)C2)CC1 (stereo not shown) [Example 125, (1-(1H-indole-6-carbonyl)piperidin-3-yl)(4-(dimethylamino)-4-phenylpiperidin-1-yl)methanone]
inhibition at 1 µM (ORL1 receptor): 42%
inhibition at 1 µM (human μ-opiate receptor): 55%

CN(C(=O)CCc1cn(C)c2ccccc12)C(C(=O)N1CCC(c2cccs2)(N(C)C)CC1)c1ccccc1 (stereo not shown) [Example 126, N-(2-(4-(dimethylamino)-4-(thiophen-2-yl)piperidin-1-yl)-2-oxo-1-phenylethyl)-N-methyl-3-(1-methyl-1H-indol-3-yl)propanamide]
inhibition at 1 µM (ORL1 receptor): 40%
inhibition at 1 µM (human μ-opiate receptor): 90%

CN(CCN1CCC(c2ccccc2)(N(C)C)CC1)C(=O)C1CCCc2c1[nH]c1ccc(Cl)cc21 (stereo not shown) [Example 127, 6-chloro-N-(2-(4-(dimethylamino)-4-phenylpiperidin-1-yl)ethyl)-N-methyl-2,3,4,9-tetrahydro-1H-carbazole-1-carboxamide]
% Inhibition (ORL1) at 1 μM (ORL1 receptor): 39%
inhibition at 1 µM (human μ-opiate receptor): 68%

CN(C)C1(c2ccccc2)CCN(C(=O)C2CCCN(C(=O)c3ccc4ccn(C)c4c3)C2)CC1 (stereo not shown) [Example 128, (4-(dimethylamino)-4-phenylpiperidin-1-yl)(1-(1-methyl-1H-indole-6-carbonyl)piperidin-3-yl) methanone]
inhibition at 1 µM (ORL1 receptor): 39%
inhibition at 1 µM (human μ-opiate receptor): 56%

COc1ccc2[nH]c(C(=O)NCCC(=O)N3CCC(c4ccccc4)(N(C)C)CC3)cc2c1 [Example 129, N-(3-(4-(dimethylamino)-4-phenylpiperidin-1-yl)-3-oxopropyl)-5-methoxy-1H-indole-2-carboxamide]
inhibition at 1 µM (ORL1 receptor): 37%
inhibition at 1 µM (human μ-opiate receptor): 73%

CN(C)C1(c2ccccc2)CCN(C(=O)C2CCCN(C(=O)c3cccc4c3ccn4C)C2)CC1 (stereo not shown) [Example 130, (4-(dimethylamino)-4-phenylpiperidin-1-yl)(1-(1-methyl-1H-indole-4-carbonyl)piperidin-3-yl) methanone]
inhibition at 1 µM (ORL1 receptor): 36%
inhibition at 1 µM (human μ-opiate receptor): 51%

CN(C)C1(c2ccccc2)CCN(C(=O)C2CCCN(C(=O)c3c[nH]c4ccccc34)C2)CC1 (stereo not shown) [Example 131, (1-(1H-indole-3-carbonyl)piperidin-3-yl)(4-(dimethylamino)-4-phenylpiperidin-1-yl)methanone]
inhibition at 1 µM (ORL1 receptor): 34%
inhibition at 1 µM (human μ-opiate receptor): 43%

CC(C)C(C(=O)N1CCC(c2ccccc2)(N(C)C)CC1)N(C)C(=O)CCc1cn(C)c2ccccc12 (stereo not shown) [Example 132, N-(1-(4-(dimethylamino)-4-phenylpiperidin-1-yl)-3-methyl-1-oxobutan-2-yl)-N-methyl-3-(1-methyl-1H-indol-3-yl)propanamide]
inhibition at 1 µM (ORL1 receptor): 34%
inhibition at 1 µM (human μ-opiate receptor): 63%

CN(C)C1(c2ccccc2)CCN(C(=O)C2CCCN(C(=O)CCc3cn(C)c4ccccc34)C2)CC1 (stereo not shown) [Example 133, 1-(3-(4-(dimethylamino)-4-phenylpiperidine-1-carbonyl)piperidin-1-yl)-3-(1-methyl-1H-indol-3-yl)propan-1-one]
inhibition at 1 µM (ORL1 receptor): 32%
inhibition at 1 µM (human μ-opiate receptor): 71%

CN(C(=O)C1CCCc2c1[nH]c1ccc(Cl)cc21)C(C(=O)N1CCC(c2cccs2)(N(C)C)CC1)c1ccccc1 (stereo not shown) [Example 134, 6-chloro-N-(2-(4-(dimethylamino)-4-(thiophen-2-yl)piperidin-1-yl)-2-oxo-1-phenylethyl)-N-methyl-2,3,4,9-tetrahydro-1H-carbazole-1-carboxamide]
inhibition at 1 µM (ORL1 receptor): 29%
inhibition at 1 µM (human μ-opiate receptor): 34%

CN(C)C1(c2cccs2)CCN(C(=O)CNC(=O)c2cccc3c2ccn3C)CC1 [Example 135, N-(2-(4-(dimethylamino)-4-(thiophen-2-yl)piperidin-1-yl)-2-oxoethyl)-1-methyl-1H-indole-4-carboxamide]
inhibition at 1 µM (ORL1 receptor): 27%
inhibition at 1 µM (human μ-opiate receptor): 61%

CN(C)c1ccc2cc(C(=O)N3CCCC(C(=O)N4CCC(c5ccccc5)(N(C)C)CC4)C3)[nH]c2c1 (stereo not shown) [Example 136, (6-(dimethylamino)-1H-indol-2-yl)(3-(4-(dimethylamino)-4-phenylpiperidine-1-carbonyl)piperidin-1-yl)methanone]
inhibition at 1 µM (ORL1 receptor): 24%
inhibition at 1 µM (human μ-opiate receptor): 46%

CCCCC1(N(C)C)CCN(CCN(C)Cc2c[nH]c3ccccc23)CC1 [Example 138, 1-(2-(((1H-indol-3-yl)methyl)(methyl)amino)ethyl)-4-butyl-N,N-dimethylpiperidin-4-amine]
inhibition at 1 µM (ORL1 receptor): 12%
inhibition at 1 µM (human μ-opiate receptor): 81%

CN(C)C1(c2ccccc2)CCN(C(=O)CCNCc2c[nH]c3ccccc23)CC1 [Example 139, 3-((1H-indol-3-yl)methylamino)-1-(4-(dimethylamino)-4-phenylpiperidin-1-yl)propan-1-one]
inhibition at 1 µM (ORL1 receptor): 74%
inhibition at 1 µM (human μ-opiate receptor): 90%

CN(CCN1CCC(c2ccccc2)(N2CCCC2)CC1)Cc1ccc2[nH]ccc2c1 [Example 140, N-((1H-indol-5-yl)methyl)-N-methyl-2-(4-phenyl-4-(pyrrolidin-1-yl)piperidin-1-yl)ethanamine]
inhibition at 1 µM (ORL1 receptor): 17%
inhibition at 1 µM (human μ-opiate receptor): 54%

CN(C)C1(c2ccccc2)CCN(C(=O)CCNCc2ccc3[nH]ccc3c2)CC1 [Example 142, 3-((1H-indol-5-yl)methylamino)-1-(4-(dimethylamino)-4-phenylpiperidin-1-yl)propan-1-one]
inhibition at 1 µM (ORL1 receptor): 40%
inhibition at 1 µM (human μ-opiate receptor): 78%

CN(CCN1CCC(c2ccccc2)(N2CCCC2)CC1)Cc1ccc2cc[nH]c2c1 [Example 143, N-((1H-indol-6-yl)methyl)-N-methyl-2-(4-phenyl-4-(pyrrolidin-1-yl)piperidin-1-yl)ethanamine]
inhibition at 1 µM (ORL1 receptor): 13%
inhibition at 1 µM (human μ-opiate receptor): 71%

CCCCC1(N(C)C)CCN(CCN(C)Cc2ccc3cc[nH]c3c2)CC1 [Example 144, 1-(2-(((1H-indol-6-yl)methyl)(methy)amino)ethyl)-4-butyl-N,N-dimethylpiperidin-4-amine]
% Inhibition (ORL1) at 1 μM (ORL1 receptor): 39%
% Inhibition (μ) at 1 μM (human μ-opiate receptor): 90%

CN(C)C1(c2ccccc2)CCN(C(=O)CCNCc2ccc3cc[nH]c3c2)CC1 [Example 145, 3-((1H-indol-6-yl)methylamino)-1-(4-(dimethylamino)-4-phenylpiperidin-1-yl)propan-1-one]
inhibition at 1 µM (ORL1 receptor): 45%
inhibition at 1 µM (human μ-opiate receptor): 80%

CC(C)C(C(=O)N1CCC(c2ccccc2)(N(C)C)CC1)N(C)Cc1ccc2[nH]ccc2c1 (stereo not shown) [Example 146, 2-(((1H-indol-5-yl)methyl)(methyl)amino)-1-(4-(dimethylamino)-4-phenylpiperidin-1-yl)-3-methylbutan-1-one]
inhibition at 1 µM (ORL1 receptor): 24%
inhibition at 1 µM (human μ-opiate receptor): 53%

CN(Cc1ccc2[nH]ccc2c1)C(C(=O)N1CCC(c2cccs2)(N(C)C)CC1)c1ccccc1 (stereo not shown) [Example 147, 2-(((1H-indol-5-yl)methyl)(methyl)amino)-1-(4-(dimethylamino)-4-(thiophen-2-yl)piperidin-1-yl)-2-phenylethanone]
inhibition at 1 µM (ORL1 receptor): 27%
inhibition at 1 µM (human μ-opiate receptor): 47%

CN(C)C1(c2ccccc2)CCN(C(=O)C2CCCN(Cc3ccc4[nH]ccc4c3)C2)CC1 (stereo not shown) [Example 148, (1-((1H-indol-5-yl)methyl)piperidin-3-yl)(4-(dimethylamino)-4-phenylpiperidin-1-yl)methanone]
inhibition at 1 µM (ORL1 receptor): 17%
inhibition at 1 µM (human μ-opiate receptor): 41%

CC(C)C(C(=O)N1CCC(c2ccccc2)(N(C)C)CC1)N(C)Cc1ccc2cc[nH]c2c1 (stereo not shown) [Example 149, 2-(((1H-indol-6-yl)methyl)(methyl)amino)-1-(4-(dimethylamino)-4-phenylpiperidin-1-yl)-3-methylbutan-1-one]
inhibition at 1 µM (ORL1 receptor): 52%
inhibition at 1 µM (human μ-opiate receptor): 54%

CN(Cc1ccc2cc[nH]c2c1)C(C(=O)N1CCC(c2cccs2)(N(C)C)CC1)c1ccccc1 (stereo not shown) [Example 150, 2-(((1H-indol-6-yl)methyl)(methyl)amino)-1-(4-(dimethylamino)-4-(thiophen-2-yl)pipendin-1-yl)-2-phenylethanone]
% Inhibition (ORL1) at 1 μM (ORL1 receptor): 76%
% Inhibition (μ) at 1 μM (human μ-opiate receptor): 54%

CN(C)C1(c2ccccc2)CCN(C(=O)C2CCCN(Cc3c[nH]c4ccccc34)C2)CC1 (stereo not shown) [Example 151, (1-((1H-indol-3-yl)methyl)piperidin-3-yl)(4-(dimethylamino)-4-phenylpiperidin-1-yl)methanone]
inhibition at 1 µM (ORL1 receptor): 52%
inhibition at 1 µM (human μ-opiate receptor): 83%

CN(C)C1(c2ccccc2)CCN(C(=O)C2CCCN(Cc3ccc4cc[nH]c4c3)C2)CC1 (stereo not shown) [Example 152, (1-((1H-indol-6-yl)methyl)piperidin-3-yl)(4-(dimethylamino)-4-phenylpiperidin-1-yl)methanone]
inhibition at 1 µM (ORL1 receptor): 80%
inhibition at 1 µM (human μ-opiate receptor): 93%

CCCCC1(N(C)C)CCN(CCN(C)Cc2c[nH]c3ccc(Br)cc23)CC1 [Example 154, 1-(2-(((5-bromo-1H-indol-3-yl)methyl)(methyl)amino)ethyl)-4-butyl-N,N-dimethylpiperidin-4-amine]
inhibition at 1 µM (ORL1 receptor): 28%
inhibition at 1 µM (human μ-opiate receptor): 94%

CN(C)C1(c2ccccc2)CCN(C(=O)C2CCCN(Cc3c[nH]c4ccc(Br)cc34)C2)CC1 (stereo not shown) [Example 155, (1-((5-bromo-1H-indol-3-yl)methyl)piperidin-3-yl)(4-(dimethylamino)-4-phenylpiperidin-1-yl) methanone]
inhibition at 1 µM (ORL1 receptor): 69%
inhibition at 1 µM (human μ-opiate receptor): 89%
